Measurements taken from patent publication US20150050240A1, “TREATMENT OF FIBROSIS” (NOVARTIS AG, priority 2012, published 2015).

Tests used:
N-Cadherin = N-Cadherin expression in HLFs (RT-PCR, western blot); type: cell-based, human; settings: TGFβ treatment, low and high cell density; FIG. 1A
Method: (§1) Total RNA was extracted from HLFs, transcribed into cDNA and used for RT-PCR. Validated Taqman N-Cadherin, OB-Cadherin, vimentin or E-Cadherin primers and probes were purchased from Applied Biosystems.
(§2) Small interfering RNAs against N-Cadehrin and OB-Cadherin were purchased from Applied Biosystems. Knockdown efficiencies were tested by using real-time RT-PCR and confirmed to be 95% at the time of stimulation in the different functional assays.
(§3) HLFs, IPF donor cells, A549 cells lysates or lung tissue lysates were prepared in RIPA buffer. The patient lung biopsies study utilized biological specimens and data provided by the Lung Tissue Research Consortium (LTRC) supported by the National Heart, Lung, and Blood Institute (NHLBI). For Western blots, 1:1000-diluted mouse-anti-N-Cadherin (BD Biosciences), rabbit-anti-OB-Cadherin (Santa Cruz), mouse-anti-SMA (Sigma), mouse-anti-vimetin (DACO), mouse-anti-E-Cadherin (Abram), rabbit-anti-β-catenin (Cell Signaling Technology), anti-rabbit-p-[…]-β-catenin (Cell Signaling Technology), rabbit-anti-β-actin (Santa Cruz) and mouse-anti-GAPDH (Santa Cruz) were used in combination with HRP-conjugated secondary antibodies (GE Healthcare). Western blots were developed using an ECL system (GE Healthcare). Quantification of the intensity of the bands was performed using NIH ImageJ software.

β-catenin = experiment: Western blots for p-Ser552 β-catenin and total β-catenin from HLFs; type: cell-based, human; settings: HLFs stimulated with TGFβ; FIG. 4A
Method: as §3
To assess the regulation of β-catenin in response to a fibrotic stimulus in HLFs, cells were stimulated with TGFβ and the expression levels and phosphorylation state of β-catenin were assessed by Western blot (FIG. 4A). There was no difference in the expression levels of total β-catenin in TGFβ-stimulated cells. However, when the cell lysates were probed with a phospho-specific β-catenin antibody, we found an increase in the phosphorylation of Ser552 upon TGFβ treatment. […]

[1] = system: primary human lung fibroblasts (HLFs); experiment: Fibroblast-to-myofibroblast transition (FMT), western blot for SMA; type: cell-based
Method: Primary human lung fibroblasts (Promocell) were maintained in DMEM supplemented with 10% heat-inactivated FBS, 1 mM Na-pyruvate and 1% Penicillin/Streptomycin and trypsinised every 4 days. Sub-confluent HLFs were electroporated via nucleofection (Amaxa electroporation system) with siRNAs.
as §3
To assess functional responses, non-transfected HLFs or HLFs transfected with siRNAs were plated in full growth medium and left to grow overnight, starved for 24 h in serum-free medium and stimulated with different growth factors for a further 24 h. For FMT assessment, the HLF cells were stimulated with 5 ng/ml TGFβ (R&D Systems) or 10 μg/ml human N-Cadherin-Fc (R&D Systems), for collagen secretion—with 1 ng/ml TGFβ, for proliferation—with FBS, 10 ng/ml PDGF-BB (R&D Systems) or 10 ng/ml FGF-2 (R&D Systems) and for migration—with 10 μg/ml human N-Cadherin-Fc (R&D Systems) or human OB-Cadherin-Fc (R&D Systems). […] The level of FMT was evaluated by western blot for SMA. Collagen secretion was measured by Sircol collagen assay (Biocolor Life Science). Proliferation assay was performed using the DELFIA system (PerkinElmer), and migration was assessed with the Oris System (Platypus Technology).

OB-Cadherin = OB-Cadherin expression in HLFs (RT-PCR, western blot); type: cell-based, human; settings: TGFβ treatment of HLFs; FIG. 1A
Method: as §1, §2, §3

[2] = cited from earlier work
[3] = system: lung fibroblasts from IPF patients; settings: cited from earlier work
[4] = cited from earlier work; remark: listed apart in the source
[5] = system: primary human lung fibroblasts (HLFs); experiment: HLF migration, in vitro wound closure assay (Oris System); type: cell-based; settings: 10 μg/ml N-Cadherin-Fc; FIG. 3A
Method: To assess functional responses, non-transfected HLFs or HLFs transfected with siRNAs were plated in full growth medium and left to grow overnight, starved for 24 h in serum-free medium and stimulated with different growth factors for a further 24 h. For FMT assessment, the HLF cells were stimulated with 5 ng/ml TGFβ (R&D Systems) or 10 μg/ml human N-Cadherin-Fc (R&D Systems), for collagen secretion—with 1 ng/ml TGFβ, for proliferation—with FBS, 10 ng/ml PDGF-BB (R&D Systems) or 10 ng/ml FGF-2 (R&D Systems) and for migration—with 10 μg/ml human N-Cadherin-Fc (R&D Systems) or human OB-Cadherin-Fc (R&D Systems). In the loss of function FMT experiment, 50 μg/ml N-Cadherin neutralizing antibody (clone GC-4, Sigma) was used. The level of FMT was evaluated by western blot for SMA. Collagen secretion was measured by Sircol collagen assay (Biocolor Life Science). Proliferation assay was performed using the DELFIA system (PerkinElmer), and migration was assessed with the Oris System (Platypus Technology).
Increased migration is a hallmark of myofibroblasts and is thought to contribute to the pathology of IPF. Therefore, we investigated the effects of N-Cadherin gain- and loss-of function on the migratory potential of HLFs. We performed an in vitro wound closure assay with cells treated with the recombinant N-Cadherin-Fc chimera or with N-Cadherin siRNA.

[6] = system: A549 epithelial alveolar type II cells; experiment: Epithelial-to-mesenchymal transition (EMT) in A549 cells (RT-PCR, western blot, E-Cadherin immunocytochemistry); type: cell-based, human; settings: recombinant N-Cadherin-Fc, immunocytochemistry for E-Cadherin
Method: A549 epithelial alveolar type II cells (ATCC) were maintained in DMEM supplemented with 10% heat-inactivated FBS and 1% Penicillin/Streptomycin and trypsinised every 4 days.
For EMT assessment, A549 cells were simulated with 5 ng/ml TGFβ (R&D Systems), a combination of 5 ng/ml TGFβ (R&D Systems) and 2.5 ng/ml IL-1β (R&D Systems) or N-Cadherin-Fc (R&D Systems). The level of EMT was evaluated either by RT-PCR and Western blot for vimentin and E-Cadheirn or by immunocytochemistry for E-Cadherin. In the loss of function EMT experiment, N-Cadherin neutralizing tool antibody or IgG isotype control were used in the presence of 18 μg/ml N-cadheirn-Fc (R&D Systems).

[7] = phase II trial with IPF patients
[8] = more recent clinical trial, discontinued in 2007

TGFβ: TGFβ (R&D Systems), pro-fibrotic stimulus used to induce FMT
N-Cadherin expression (N-Cadherin): upregulated | expression levels of total β-catenin (β-catenin): no difference | phosphorylation of Ser552 of β-catenin (β-catenin): increase | SMA expression ([1]; TGFβ stimulation, low and high cell density): marked increase | OB-Cadherin expression (OB-Cadherin): upregulated

Cc1ccc(=O)n(-c2ccccc2)c1 [Pirfenidone]
chest radiographs [2, 7]: did not improve | pulmonary functional tests [2, 7]: stabilized or improved in some patients | side effects [2, 7]: no severe side effects | survival rates [2, 7]: improved | lung function ([2]; phase III clinical trial, IPF patients): might positively affect lung function | collagen synthesis [3]: reduces collagen synthesis | mitogenic effects of pro-fibrotic cytokines [3]: blocks mitogenic effects

interferon
clinical improvement ([4]; IPF patients refractory to corticosteroid or immunosuppressive therapy): showed no improvement | clinical trial outcome [4, 8]: ineffectiveness | patients death rates compared with placebo [4, 8]: slightly increased

B1: N-Cadherin-Fc: human N-Cadherin-Fc fusion protein (R&D Systems) that mimics N-Cadherin homophilic interactions and activates N-Cadherin signalling (protein)
chain: DWVIPPINLPENSRGPFPQELVRIRSDRDKNLSLRYSVTGPGADQPPTGIFIINPISGQLSVTKPLDREQIARFHLRAHAVDINGNQVENPIDIVINVIDMNDNRPEFLHQVWNGTVPEGSKPGTYVMTVTAIDADDPNALNGMLRYRIVSQAPSTPSPNMFTINNETGDIITVAAGLDREKVQQYTLIIQATDMEGNPTYGLSNTATAVITVTDVNDNPPEFTAMTFYGEVPENRVDIIVANLTVTDKDQPHTPAWNAVYRISGGDPTGRFAIQTDPNSNDGLVTVVKPIDFETNRMFVLTVAAENQVPLAKGIQHPPQSTATVSVTVIDVNENPYFAPNPKIIRQEEGLHAGTMLTTFTAQDPDRYMQQNIRYTKLSDPANWLKIDPVNGQITTIAVLDRESPNVKNNIYNATFLASDNGIPPMSGTGTLQIYLLDINDNAPQVLPQEAETCETPDPNSINITALDYDIDPNAGPFAFDLPLSPVTIKRNWTITRLNGDFAQLNLKIKFLEAGIYEVPIIITDSGNPPKSNISILRVKVCQCDSNGDCTDVDRIVGAGLGTGA
modifications: left off: a dimerising Fc or GST
HLF migration into the wound [5]: significant increase | SMA expression ([1]; HLFs treated with 10 μg/ml N-Cadherin-Fc for 24 h, FIG. 2A): significant increase | additive or synergistic effect on SMA expression ([1]; combination of TGFβ and N-Cadherin-Fc, 24 h): did not observe an additive or synergistic effect | EMT, measured by decreased E-Cadherin signal [6]: significant EMT
